21 compounds from patent publication US12390437B2, “Itaconic acid derivatives and uses thereof intreating an inflammatory disease or a disease associated with an undesirable immune response” (Sitryx Therapeutics Limited, priority 2019, dated 2025) can be followed below.

Where a name gives a salt, the structure may show the parent alone. Read-outs that look alike come from different tables or passages of the source.

In data set [1] the test system is IL-1β cytokine output from THP-1s. The data set is described as follows: THP-1 AlphaLISA IL-1β cytokine assay. It counts as cell-based, human. The note with it: Homo sapiens, read-out: IL-1β (IC50). The method in brief:
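THP-1 cells, PMA-differentiated 72 h; 30 min compound pre-incubation; LPS 24 h; nigericin 1 h; 37 °C/5% CO2. Supernatants read by AlphaLISA kit. IC50 from % inhibition vs concentration, normalised to +LPS (high) and −LPS (low) controls.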
(In Alpha technology, singlet oxygen from a donor bead excites a nearby acceptor bead.)

Another data set concerns NRF2. The data set is described as follows: NRF2 +/-GSH activation assay (DiscoverX PathHunter NRF2 translocation kit, U2OS cells). It counts as cell-based. The note with it: Homo sapiens. An outline of the steps:
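PathHunter U2OS cells, plated 24 hrs, measured NRF2 nuclear translocation by enzyme-fragment complementation luminescence after 6 hours compound exposure at 37 °C. For +GSH, compound was pre-incubated 30 minutes with GSH (6 mM working stock). EC50 from % activation normalised to dimethyl fumarate high control.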

Data set [2] in a line: Hepatocyte stability assay (human). To be noted: cryopreserved hepatocytes, 10 μM compound, 0.5×10^6 cells/mL, 60 minutes, read-out: T½. The format is in vitro ADME. The text has this:
(§1) Defrosted cryo-preserved hepatocytes (viability >70%) are used to determine the metabolic stability of a compound via calculation of intrinsic clearance (Clint; a measure of the removal of a compound from the liver in the absence of blood flow and cell binding). Clearance data are particularly important for in vitro work as they can be used in combination with in vivo data to predict the half-life and oral bioavailability of a drug.
(§2) The metabolic stability in hepatocytes assay involves a time-dependent reaction using both positive and negative controls. The cells must be pre-incubated at 37° C. then spiked with test compound (and positive control); samples taken at pre-determined time intervals are analysed to monitor the change in concentration of the initial drug compound over 60 minutes. A buffer incubation reaction (with no hepatocytes present) acts as a negative control and two cocktail solutions, containing compounds with known high and low clearance values (verapamil/7-hydroxycoumarin and propranolol/diltiazem), act as positive controls. • 1. The assay is run with a cell concentration of 0.5×10^6 cells/mL in Leibovitz buffer. • 2. All compounds and controls are run in duplicate. • 3. Compound concentration is 10 μM. • 4. All compounds and controls are incubated with both cells and buffer to show turnover is due to hepatic metabolism. • 5. All wells on the incubation plate will have 326.7 μL of either cells or buffer added. • 6. Prior to assay, cell and buffer-only incubation plates are preincubated for 10 mins at 37° C. • 7. The assay is initiated by adding compounds, 3.3 μL of 1 mM in 10% DMSO-90% Buffer; final DMSO concentration is 0.1%. • 8. Samples are taken at regular timepoints (0, 5, 10, 20, 40, 60 min) until 60 mins. • 9. Sample volume is 40 μL and it is added to 160 μL of crash solvent (acetonitrile with internal standard) and stored on ice. • 10. At the end of the assay, the crash plates are centrifuged at 3500 rpm for 20 mins at 4° C. • 11. 80 μL of clear supernatant is removed and mixed with 80 μL of deionised water before being analysed by LC-MS/MS.
(§3) Raw LC-MS/MS data are exported to, and analysed in, Microsoft Excel for determination of intrinsic clearance. The percentage remaining of a compound is monitored using the peak area of the initial concentration as 100%. Intrinsic clearance and half-life values are calculated using a graph of the natural log of percentage remaining versus the time of reaction in minutes. Half-life (min) and intrinsic clearance (Clint in μL min^−1 10^−6 cells) values are calculated using the gradient of the graph (the elimination rate constant, k) and Equations 1 and 2.

For another data set, the system named is hepatocytes. Briefly: Hepatocyte stability assay (human). To be noted: 10 μM compound, 0.5×10^6 cells/mL, 60 minutes. It counts as in vitro ADME.
Text: as §1, §2, §3

Where [3] appears, read: THP-1, PMA-differentiated THP-1 cells, LPS 24 hr then Nigericin 1 hour.
[4] abbreviates: U2OS, normalised to dimethyl fumarate 'High' control, GSH condition not stated in Table 5, read-out: NRF2 activation Emax.
Setting [5] is: U2OS PathHunter cells, 6 hours, GSH condition not stated in Table 5, read-out: NRF2 activation EC50.
[6] abbreviates: THP-1, Table 10, assay of Biological Example 1 (THP-1).
Where [7] appears, read: U2OS, Table 10, assay of Biological Example 5 (NRF2), read-out: EC50.
Where [8] appears, read: U2OS, Table 10, assay of Biological Example 5 (NRF2), read-out: Emax.

The IC50 is the midpoint of a concentration-inhibition curve. As a reminder, the Emax is the size of the effect at its maximum, as opposed to the concentration needed. The term EC50 denotes the midpoint of the concentration-response curve. Turning to `C=C(CC(=O)OCCCCCCCC)C(=O)OCCC#N` [Example 1, 1-(2-cyanoethyl) 4-octyl 2-methylenesuccinate], the IC50 in data set [1] (setting [3]) is 9.3 µM. In addition, the maximal effect (Emax) in the data set on NRF2 (setting [4]) stood at 134%. Besides, in the data set on NRF2 (setting [5]), the EC50 came to 8.8 µM.
Taken in the same sequence, the figures for `C=C(CC(=O)OCCCCCCCC)C(=O)OCCS(C)(=O)=O` [Example 2, 1-(2-(methylsulfonyl)ethyl) 4-octyl 2-methylenesuccinate] were 5 µM, 268% and 5.1 µM.
Take `C=C(CC(=O)OCCCCCCCC)C(=O)OCCC(F)(F)F` [Example 3, 4-octyl 1-(3,3,3-trifluoropropyl) 2-methylenesuccinate]: in data set [1] (setting [3]), the IC50 stood at 15.6 µM.
For the compound `C=C(CC(=O)OCCCCCCCC)C(=O)OC1COC1` [Example 4, 4-octyl 1-(oxetan-3-yl) 2-methylenesuccinate], the IC50 in data set [1] (setting [3]) came to 9.3 µM. In addition, the maximum response (Emax) in the data set on NRF2 (setting [4]) came to 181%. For the same compound, in the data set with NRF2 (setting [5]), the EC50 is 8.3 µM.
For the compound `C=C(CC(=O)OCCCCCCCC)C(=O)OCCN1C(=O)CCC1=O` [Example 9, 1-(2-(2,5-dioxopyrrolidin-1-yl)ethyl) 4-octyl 2-methylenesuccinate], the IC50 in data set [1] (setting [3]) came to 4.7 µM.
In the case of `C=C(CC(=O)OCCCCCCCC)C(=O)OCC(=O)O` [Example 49, 2-((2-methylene-4-(octyloxy)-4-oxobutanoyl)oxy)acetic acid], in data set [1] (setting [3]), the IC50 was 7.2 µM. In addition, the Emax in the data set on NRF2 (setting [4]) turned out to be 232%. Further, in the data set with NRF2 (setting [5]), the 50% effective concentration (EC50) is 15.8 µM. The half-life at 10 μM in data set [2] amounted to 0.217 h. Also, in the data set on hepatocytes, the “CIint (μL min^−1 10^−6 cells)” value was determined as 109 μL min^−1 10^−6 cells.
As for `C=C(CC(=O)OCCCCCCCC)C(=O)OCCC(=O)O` [Example 80, 3-((2-methylene-4-(octyloxy)-4-oxobutanoyl)oxy)propanoic Acid], the IC50 in data set [1] (setting [3]) came out at 9.6 µM. Also, the Emax in the data set on NRF2 (setting [4]) worked out at 229%. Besides, in the data set on NRF2 (setting [5]), the EC50 was 21.5 µM. Further, in data set [2], the half-life at 10 μM worked out at 0.1 h. Moreover, the “CIint (μL min^−1 10^−6 cells)” value in the data set on hepatocytes was 243 μL min^−1 10^−6 cells.
The like results for `C=C(CC(=O)OC1CCCCCCC1)C(=O)OCCC(=O)O` [Example 82, 3-((4-(cyclooctyloxy)-2-methylene-4-oxobutanoyl)oxy)propanoic acid] were, in that order, 25.7 µM, 164%, 26.5 µM, 1.52 h and 15 μL min^−1 10^−6 cells.
Taken in the same sequence, the figures for `C=C(CC(=O)O[C@@H](C)CCCCCC)C(=O)OCCC(=O)O` [Example 84, (S)-3-((2-methylene-4-(octan-2-yloxy)-4-oxobutanoyl)oxy)propanoic acid] were 14.3 µM, 185%, 6.3 µM, 0.267 h and 86 μL min^−1 10^−6 cells.
The like results for `C=C(CC(=O)OCCCOc1ccccc1)C(=O)OCCC(=O)O` [Example 86, 3-((2-methylene-4-oxo-4-(3-phenoxypropoxy)butanoyl)oxy)propanoic acid] were, in that order, 100 µM, 91%, 21 µM, 0.517 h and 44 μL min^−1 10^−6 cells.
Turning to `C=C(CC(=O)OC1CCCCC1)C(=O)OCCC(=O)O` [Example 87, 3-((4-(cyclohexyloxy)-2-methylene-4-oxobutanoyl)oxy)propanoic acid], the IC50 in data set [1] (setting [3]) turned out to be 28.1 µM. Besides, the Emax in the data set on NRF2 (setting [4]) is 113%. Besides, in the data set on NRF2 (setting [5]), the EC50 is 34.2 µM. Also, the half-life at 10 μM in data set [2] was 2.27 h. For the same compound, the “CIint (μL min^−1 10^−6 cells)” value in the data set on hepatocytes was found to be 11 μL min^−1 10^−6 cells.
The like results for `C=C(CC(=O)O[C@H](C)CCCCCC)C(=O)OCCC(=O)O` [Example 88, (R)-3-((2-methylene-4-(octan-2-yloxy)-4-oxobutanoyl)oxy)propanoic acid] were, in that order, 25.2 µM, 139%, 3.2 µM, 0.217 h and 134 μL min^−1 10^−6 cells.
The like results for `C=C(CC(=O)O[C@@H](C)CCCCCC)C(=O)OCC(=O)O` [Example 89, (S)-2-((2-methylene-4-(octan-2-yloxy)-4-oxobutanoyl)oxy)acetic acid] were, in that order, 17.5 µM, 238%, 22.4 µM, 0.817 h and 29 μL min^−1 10^−6 cells.
The like results for `C=C(CC(=O)OC1CCCCCCC1)C(=O)OCC(=O)O` [Example 90, 2-((4-(cyclooctyloxy)-2-methylene-4-oxobutanoyl)oxy)acetic acid] were, in that order, 16.4 µM, 157%, 29.4 µM, 3.05 h and 8 μL min^−1 10^−6 cells.
For the compound `C=C(CC(=O)OC1CCCCC1)C(=O)OCC(=O)O` [Example 91, 2-((4-(cyclohexyloxy)-2-methylene-4-oxobutanoyl)oxy)acetic acid], the IC50 in data set [1] (setting [3]) worked out at 48.1 µM. Moreover, in the data set on NRF2 (setting [4]), the Emax is 73%. Also, the EC50 in the data set on NRF2 (setting [5]) is 10.1 µM. In data set [2], the half-life at 10 μM was 5.87 h. Further, the “CIint (μL min^−1 10^−6 cells)” value with hepatocytes was 4 μL min^−1 10^−6 cells.
With `C=C(CC(=O)OC1C(C)(C)CC1(C)C)C(=O)OCC(=O)O` [Example 169, 2-((2-methylene-4-oxo-4-(2,2,4,4-tetramethylcyclobutoxy)butanoyl)oxy) acetic acid], the IC50 in data set [1] (setting [3]) amounted to 15.6 µM. For the same compound, the half-life at 10 μM in data set [2] came to 4.47 h. Also, in the data set with hepatocytes, the “CIint (μL min^−1 10^−6 cells)” value is on record as 5 μL min^−1 10^−6 cells.
The like results for `C=C(CC(=O)O[C@@H](CC)CCCCC)C(=O)OCC(=O)O` [Example 170, (S)-2-(2-methylene-4-(octan-3-yloxy)-4-oxobutanoyloxy)acetic acid] were, in that order, 14.7 µM, 2 h and 12 μL min^−1 10^−6 cells.
Turning to `C=C(CC(=O)O[C@H](CC)CCCCC)C(=O)OCC(=O)O` [Example 178, (R)-2-(2-methylene-4-(octan-3-yloxy)-4-oxobutanoyloxy)acetic acid], the IC50 in data set [1] (setting [3]) worked out at 24.6 µM. Also, the Emax in the data set on NRF2 (setting [4]) was 188%. In the data set on NRF2 (setting [5]), the EC50 came to 14.3 µM.
`C=C(CC(=O)OC(C)(C)CCCCC)C(=O)OCC(=O)O` [Example 193, 2-((2-methylene-4-((2-methylheptan-2-yl)oxy)-4-oxobutanoyl)oxy)acetic acid]: the IC50 in data set [1] (setting [3]) turned out to be 17.6 µM. Also, the half-life at 10 μM in data set [2] came to 1.82 h. Further, the “CIint (μL min^−1 10^−6 cells)” value in the data set with hepatocytes turned out to be 16 μL min^−1 10^−6 cells.
For `COC(=O)/C=C/C(=O)OC` [dimethyl fumarate, reference compound], the IC50 in data set [1] (setting [3]) and in data set [1] (setting [6]) was 14.4 µM throughout. Besides, the EC50 in the data set with NRF2 (setting [7]) and with NRF2 (setting [5]) was 5.6 µM throughout. Moreover, the Emax with NRF2 (setting [8]) and in the data set with NRF2 (setting [4]) was 102% throughout.
In the case of `C=C(CC(=O)OC)C(=O)OC` [dimethyl itaconate, reference compound], the IC50 in data set [1] (setting [3]) and in data set [1] (setting [6]) was greater than 100 µM throughout. Also, the EC50 in the data set on NRF2 (setting [7]) and with NRF2 (setting [5]) was 21.4 µM each time. In addition, the Emax in the data set with NRF2 (setting [8]) and in the data set on NRF2 (setting [4]) was 137% in each case.
